US4472320A (priority 1981, dated 1984)
Where a name gives a salt, the structure may show the parent alone.

Columns and labels:
[1] = biological target: BuChE, horse (butyrylcholinesterase, EC 3.1.1.8) (Equus caballus, UniProt P81908); type: biochemical
[2] = biological target: AChE, eel (acetylcholinesterase, EC 3.1.1.7) (Electrophorus electricus, UniProt O42275); type: biochemical, electric eel
[3] = system: guinea pigs; conditions: guinea pig, in vivo; cited from earlier work

Sequence of AChE, eel (acetylcholinesterase, EC 3.1.1.7) (O42275 24-633): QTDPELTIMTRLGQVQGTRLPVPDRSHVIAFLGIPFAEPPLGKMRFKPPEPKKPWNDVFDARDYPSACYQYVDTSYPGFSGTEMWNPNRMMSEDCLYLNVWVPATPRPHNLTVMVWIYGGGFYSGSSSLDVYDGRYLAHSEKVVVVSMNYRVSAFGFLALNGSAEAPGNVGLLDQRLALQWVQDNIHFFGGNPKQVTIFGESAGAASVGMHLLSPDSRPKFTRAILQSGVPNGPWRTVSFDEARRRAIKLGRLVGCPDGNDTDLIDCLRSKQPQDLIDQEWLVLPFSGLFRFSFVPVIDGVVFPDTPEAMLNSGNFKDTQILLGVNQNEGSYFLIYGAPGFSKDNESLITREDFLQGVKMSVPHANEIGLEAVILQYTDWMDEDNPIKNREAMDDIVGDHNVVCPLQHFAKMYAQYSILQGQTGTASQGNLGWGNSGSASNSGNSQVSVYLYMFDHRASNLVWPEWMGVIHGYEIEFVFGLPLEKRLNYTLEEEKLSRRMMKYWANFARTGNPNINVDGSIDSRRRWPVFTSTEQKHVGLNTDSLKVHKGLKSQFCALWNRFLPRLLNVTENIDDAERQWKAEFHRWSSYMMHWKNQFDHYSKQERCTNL
Sequence of BuChE, horse (butyrylcholinesterase, EC 3.1.1.8) (P81908 whole entry): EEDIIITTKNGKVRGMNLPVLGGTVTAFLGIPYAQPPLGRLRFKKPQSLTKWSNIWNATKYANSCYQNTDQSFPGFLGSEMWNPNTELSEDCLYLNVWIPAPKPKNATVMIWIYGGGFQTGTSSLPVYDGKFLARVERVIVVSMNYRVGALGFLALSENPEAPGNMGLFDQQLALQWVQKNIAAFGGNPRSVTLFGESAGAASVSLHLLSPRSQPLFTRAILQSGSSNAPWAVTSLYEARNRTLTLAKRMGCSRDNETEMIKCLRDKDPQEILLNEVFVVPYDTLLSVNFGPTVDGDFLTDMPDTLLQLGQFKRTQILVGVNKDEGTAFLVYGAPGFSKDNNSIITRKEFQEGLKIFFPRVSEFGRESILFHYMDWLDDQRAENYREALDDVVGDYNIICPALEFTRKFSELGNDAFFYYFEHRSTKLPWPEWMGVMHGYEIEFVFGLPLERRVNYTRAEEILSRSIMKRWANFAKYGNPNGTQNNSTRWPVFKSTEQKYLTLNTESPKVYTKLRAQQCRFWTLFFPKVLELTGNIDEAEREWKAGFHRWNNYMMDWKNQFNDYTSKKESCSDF

C[n+]1ccccc1C=NO.[I-] [2-PAM, 2-hydroximinomethyl-1-methylpyridinium iodide]
effect of oxime on reactivation of TDPI-inhibited BuChE [1]: enhanced the reactivation of horse serum BuChE | effect of oxime on spontaneous reactivation of TDPI-inhibited AChE [2]: accelerated significantly the spontaneous reactivation

C[n+]1cccc(C=NO)c1 [3-PAM]
effect of oxime on spontaneous reactivation of TDPI-inhibited AChE [2]: did not enhance the regeneration of enzyme activity

CNC(=O)Oc1ccc2c(c1)[C@]1(C)CCN(C)[C@@H]1N2C [physostigmine sulfate]
maximum dosage which does not result in side-effects [3]: 0.1 mg/kg

CN(C)C(=O)Oc1ccc[n+](C)c1 [pyridostigmine iodide]
maximum dosage which does not result in side-effects [3]: 0.1 mg/kg
